Assay results taken from BindingDB's records for doi:10.7270/Q2K935WV (Nmmlsc, 2008).

Target: Isoform Bcl-X(L) of Bcl-2-like protein 1 (Bcl-xL) (Homo sapiens, UniProt Q07817)
Assay: Bcl-XL binding to Bim peptide disruption – biochemical, multiplexed, bead flow cytometry, human Bcl-XL, dose response (AID 1322)
Conditions: pH 7.4, 4 °C
[1] = inactive by the depositor's call

Sequence of Isoform Bcl-X(L) of Bcl-2-like protein 1 (Bcl-xL) (Q07817 whole entry G70A, canonical isoform): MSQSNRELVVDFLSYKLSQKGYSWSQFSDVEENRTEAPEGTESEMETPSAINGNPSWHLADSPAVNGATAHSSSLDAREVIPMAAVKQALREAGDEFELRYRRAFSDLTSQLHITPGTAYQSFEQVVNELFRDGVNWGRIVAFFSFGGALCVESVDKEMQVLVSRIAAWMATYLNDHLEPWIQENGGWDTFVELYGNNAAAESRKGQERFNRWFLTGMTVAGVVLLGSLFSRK

| EC50 [1] | EC50 | SMILES |
| --- | --- | --- |
| 0.41 µM |  | O=c1c2c(-c3ccccc3)csc2nc2c3ccccc3c(NCCN3CCOCC3)nn12 [SMR000352519] |
|  | 26.4 µM | CCN1/C(=C/C(C)=C/c2sc3ccccc3[n+]2CC)Sc2ccccc21 [SMR000354813] |
| 24 µM |  | Cc1ccnc(Nc2nc(-c3c(C)nc4sccn34)cs2)c1 [[4-(6-Methyl-imidazo[2,1-b]thiazol-5-yl)-thiazol-2-yl]-(4-methyl-pyridin-2-yl)-amine] |
| 13.5 µM |  | CCOC(=O)c1nc(Nc2ccc(C(=O)OC)cc2)c2ccccc2n1 [ethyl 4-(4-methoxycarbonylanilino)quinazoline-2-carboxylate] |
| 2.64 µM |  | CN(N=Cc1ccncc1)C1=NS(=O)(=O)c2ccccc21 [isonicotinaldehyde (1,1-dioxido-1,2-benzisothiazol-3-yl)(methyl)hydrazone] |
